Experimental data reported in publication PMC9959553, “Promising Antifungal Molecules against Mucormycosis Agents Identified from Pandemic Response Box®: In Vitro and In Silico Analyses” (Journal of Fungi, 2023).

What follows are compounds tested on R. oryzae UCP1295 (assay: Screening of the Pandemic Response Box library at 5 µM). Settings: 48 h, Table S1, mean of the four values.
Assay type: cell-based, Rhizopus oryzae
Procedure, shortened: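 Compounds at 5 μM in RPMI 1640 with 2% glucose and MOPS (0.165 mol/L, pH 7.2), with conidia at 2 × 10^5/mL, incubated 48 h at 37 °C in 5% CO2. Growth read by OD at 600 nm; hits defined as ≥60% inhibition. Posaconazole (5 μM) and 1% DMSO as controls.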

First: COc1ccc2cc3[n+](cc2c1OCCN(CCn1cncn1)Cc1ccc(F)cc1F)CCc1cc2c(cc1-3)OCO2 [MMV1593540]
Second: C[C@@H](c1nc(-c2ccc(C#N)cc2)cs1)[C@](O)(Cn1cncn1)c1ccc(F)cc1F [MMV1634362]
The “% of growth inhibition, Mean” value of the first is higher: -0.6% for the first, -36.2% for the second.

Compared with `Nc1nc(Nc2ccc3nc(-c4ccc(F)cc4)cc(N)c3c2)cc(-c2ccccc2)n1` [MMV1593541], `Nc1nc(-c2ccccc2)nc2[nH]nc(Nc3ccc(C(F)(F)F)cc3)c12` [MMV1633968] is higher in “% of growth inhibition, Mean” value: -21.7% for the first, 4.3% for the second.

Compared with `OCCCCn1cnc2c(O)nc(NCc3ccc(Cl)c(Cl)c3)nc21` [MMV1593542], `COCCn1cnc2c(O)nc(Nc3ccccc3)nc21` [MMV1782103] is lower in “% of growth inhibition, Mean” value: -14.0% for the first, -15.7% for the second.

Compared with `COc1cc(C(C(=O)NC2CCCCC2)N(C(=O)Cc2c[nH]c3ccccc23)c2ccc(C(C)C)cc2)cc(OC)c1OC` (centres unmarked) [MMV1593544], `COc1cc(C2C3=C(CC(C)(C)CC3=O)Nc3ccccc3N2C(C)=O)ccc1OCc1ccccc1` (centres unmarked) [MMV1634557] is lower in “% of growth inhibition, Mean” value: -2.6% for the first, -15.9% for the second.

Compared with `CC1(C)C[C@H]1C(=O)N/C(=C\CCCCSC[C@@H](N)C(=O)O)C(=O)O.[Na+]` [MMV1613559], `CC(C)C(=O)N[C@H]1[C@H]([C@H](O)[C@H](O)CO)OC(C(=O)O)=C[C@@H]1N=[N+]=[N-]` [MMV1782111] is higher in “% of growth inhibition, Mean” value: -16.6% for the first, -12.9% for the second.

Compared with `NC(=O)[C@@H]1CC[C@@H]2CN1C(=O)N2OS(=O)(=O)O` [MMV1613560], `N[C@H]1CCC[C@H]1C(=O)O` [MMV1634361] is higher in “% of growth inhibition, Mean” value: -12.6% for the first, -8.8% for the second.

Compared with `Cc1ncc([N+](=O)[O-])n1CC(O)CN1CCOCC1` (centres unmarked) [MMV1613562], `Cn1cc(NC(=O)c2cc(NC(=O)c3ccc(/C=C/c4cnc5ccccc5c4)cc3)cn2C)cc1C(=O)NCCN1CCOCC1` [MMV1634391] is lower in “% of growth inhibition, Mean” value: -0.4% for the first, -17.4% for the second.

Going from `COc1cc(Cc2cnc(N)nc2N)c2c(c1OC)OC(C1CC1)C=C2` (centres unmarked) [MMV1613563] to `COc1cc(C(C)(C)CCCC(C)C)cc(OC)c1OC` [MMV1782102], the “% of growth inhibition, Mean” value falls from -6.9% to -11.2%.

Compared with `C=C[C@]1(C)C[C@@H](OC(=O)CS[C@@H]2C[C@H]3CC[C@@H](C2)N3C)[C@]2(C)[C@H](C)CC[C@]3(CCC(=O)[C@H]32)[C@@H](C)[C@@H]1O` [MMV1633674], `CC(C)c1cc2c(cc1S(=O)(=O)O)[C@@]1(C)CCC[C@@](C)(C(=O)O)[C@@H]1CC2` [MMV1633675] is lower in “% of growth inhibition, Mean” value: -19.9% for the first, -25.5% for the second.

Compared with `Nc1nc2c(ncn2[C@@H]2O[C@H](CO)[C@@H](O)[C@H]2F)c(=O)[nH]1` [MMV1633677], `NC(=O)c1nccn([C@@H]2O[C@H](CO)[C@@H](O)[C@H]2O)c1=O` [MMV1782104] is higher in “% of growth inhibition, Mean” value: -10.0% for the first, -4.9% for the second.

First: CC[C@@]1(O)C(=O)OCc2c1cc1n(c2=O)Cc2cc3c(CN(C)C)c(O)ccc3nc2-1.Cl [MMV1633678]
Second: CCc1c(O)nc2ccc(F)cc2c1OCC1CCC1 [MMV1634395]
The “% of growth inhibition, Mean” value of the first is higher: -10.2% for the first, -20.7% for the second.

First: CCc1ccccc1OCCN1CCCCCC1 [MMV1633962]
Second: O=C(NCCN1CCCCC1)c1cccc(C(F)(F)F)c1 [MMV1633964]
The “% of growth inhibition, Mean” value of the first is lower: -12.2% for the first, -2.0% for the second.

Compared with `O=C(O)/C=C/C=C/c1cccc(Oc2cc(Cl)cc(Cl)c2)c1` [MMV1633963], `O=C(/C(=C/c1ccc(Cl)cc1Cl)n1ccnc1)c1ccc(Cl)cc1` [MMV1634491] is lower in “% of growth inhibition, Mean” value: 12.3% for the first, -15.1% for the second.

Going from `COc1c(NC(=O)[C@H]2CC[C@@H](COc3ccc([N+](=O)[O-])cc3)CC2)c(F)cc2c(=O)c(C(=O)O)cn(C3CC3)c12` [MMV1633965] to `COc1ccc(CNC(=O)C2CCN(C(C)c3cccc4ccccc34)CC2)cc1` (centres unmarked) [MMV1634397], the “% of growth inhibition, Mean” value falls from -11.6% to -12.7%.

Compared with `Nc1nnnn1CCOc1c2[nH]c3ccc(Cl)cc3c2cc2c1[nH]c1ccc(Cl)cc12` [MMV1633966], `CC(C)(C)c1ccc(OCCn2nc(C(=O)O)c3ccccc3c2=O)cc1` [MMV1634387] is higher in “% of growth inhibition, Mean” value: -30.2% for the first, -15.4% for the second.

First: CCOC(=O)Nc1cc(NC(C)CC(C)CN(CC)CC)c2nc(-c3ccccc3)c(-c3ccccc3)nc2n1 (centres unmarked) [MMV1633967]
Second: O=C(N[C@H](Cc1cccc2ccccc12)C(=O)NCCc1c[nH]cn1)C1Cc2ccccc2C1 [MMV1782109]
The “% of growth inhibition, Mean” value of the first is lower: -28.6% for the first, -14.0% for the second.

First: O=C(O)c1ccc(-c2ccc(O[C@H]3O[C@H](CO)[C@@H](O)[C@H](O)[C@@H]3O)cc2)cc1 [MMV1633970]
Second: O=C(Nc1nnc(-c2ccc(Cl)cc2)o1)c1ccc(F)cc1 [MMV1782140]
The “% of growth inhibition, Mean” value of the first is lower: -12.3% for the first, -4.1% for the second.

Compared with `CCOc1noc2cc(OCCC3CCN(c4ccc(C)nn4)CC3)ccc12` [MMV1634071], `Cc1ccc(N2CCC(CCOc3ccc(S(C)(=O)=O)cc3)CC2)nn1` [MMV1634394] is higher in “% of growth inhibition, Mean” value: -15.0% for the first, 3.3% for the second.

First: CCC(C)(C)c1ccc(CC(C)CN2C[C@@H](C)O[C@@H](C)C2)cc1.Cl (some centres unmarked) [MMV1634358]
Second: CCOc1ccc(/C=N/NC(=O)C2CC2c2ccc(C(C)(C)C)cc2)cc1OCC (centres unmarked) [MMV1634398]
The “% of growth inhibition, Mean” value of the first is lower: -26.0% for the first, 4.7% for the second.

First: CN(C/C=C/C#CC(C)(C)C)Cc1cccc2ccccc12 [MMV1634359]
Second: CCc1nc2ccccn2c1C(=O)NCc1ccccc1 [MMV1663457]
The “% of growth inhibition, Mean” value of the first is lower: -42.5% for the first, -0.4% for the second.

Going from `O=C1c2cccc3cccc(c23)C(=O)N1CC1CO1` (centres unmarked) [MMV1634360] to `CCc1cc(Nc2cc(=O)n(CCN3CCN(C(=O)c4ccccc4)CC3)c(=O)[nH]2)ccc1C` [MMV1634383], the “% of growth inhibition, Mean” value rises from -18.1% to -3.9%.

Compared with `OB1OCc2cc(Cl)ccc21` [MMV1634363], `Nc1nc(O)c(Br)c(-c2cccc(Cl)c2)n1` [MMV1645152] is higher in “% of growth inhibition, Mean” value: -17.9% for the first, 4.7% for the second.

First: CCN(CC)S(=O)(=O)c1ccc(Cl)c(C(=O)Nc2sc3c(c2C#N)CCCC3)c1 [MMV1634384]
Second: CCCCc1ccc(S(=O)(=O)Nc2cc(C)on2)cc1 [MMV1782108]
The “% of growth inhibition, Mean” value of the first is higher: -5.0% for the first, -13.7% for the second.

Compared with `Nc1ccc(-c2nc3cc(C(F)(F)F)ccc3n2C23CC4CC(CC(C4)C2)C3)cc1` [MMV1634385], `CN1C(=O)C(c2ccccc2)C(=O)N(c2ccccc2)c2cc(C(F)(F)F)ccc21` (centres unmarked) [MMV1782208] is lower in “% of growth inhibition, Mean” value: -6.2% for the first, -7.5% for the second.

First: O[C@@](Cn1cnnn1)(c1ccc(F)cc1F)C(F)(F)c1ccc(-c2ccc(OCC(F)(F)F)cc2)cn1 [MMV1634386]
Second: CNCC(=O)OCc1cccnc1N(C)C(=O)OC(C)[n+]1cnn(C[C@](O)(c2cc(F)ccc2F)[C@@H](C)c2nc(-c3ccc(C#N)cc3)cs2)c1 (some centres unmarked) [MMV1634494]
The “% of growth inhibition, Mean” value of the first is lower: -15.2% for the first, -14.8% for the second.

Going from `CC(C)N(c1cc(-c2ccccc2)sc1C(=O)O)C(=O)[C@H]1CC[C@H](C)CC1` [MMV1634388] to `CCc1cc(CCC(=O)Nc2ccccc2O)c(=O)[nH]c1C` [MMV1782106], the “% of growth inhibition, Mean” value rises from -4.7% to -2.0%.

Compared with `Nc1nc(C(F)(F)F)cc2c1[nH]c(=O)n2Cc1ccccc1` [MMV1634389], `CC(C)(C)c1ccc(C(Cn2cccc(C(F)(F)F)c2=O)NC2Cc3ccccc3C2)cc1` (centres unmarked) [MMV1634393] is lower in “% of growth inhibition, Mean” value: 10.3% for the first, -0.4% for the second.

First: CCNC(=O)Nc1cc2c(-c3ccnc(C)c3)ccc(CNC(=O)OC)c2cn1 [MMV1634390]
Second: CCCCc1ccc(-c2nc(C)c(C(=O)OC)s2)cc1 [MMV1634392]
The “% of growth inhibition, Mean” value of the first is lower: -15.7% for the first, -3.4% for the second.

Going from `O=C(c1nc2c(C(F)(F)F)cc(C3CC3)cn2c1Cl)N1CCN([C@H]2CC[C@H](O)CC2)C(=O)C1` [MMV1634396] to `O=C(NN1C(=O)[C@@H]2C3C=CC([C@H]4C[C@@H]34)[C@@H]2C1=O)c1ccc(C(F)(F)F)cc1` [MMV1782114], the “% of growth inhibition, Mean” value rises from -11.9% to -5.7%.

Going from `Cc1nc2ccc(Oc3ccccc3)cc2c2c1CCN2CCc1ccccc1` [MMV1634399] to `O=c1[nH]c(=O)n(Cc2cccc(Oc3ccccc3)c2)cc1Nc1ccccc1` [MMV1782107], the “% of growth inhibition, Mean” value rises from -16.3% to -3.3%.

First: Cc1ccc(C)c(OCCCCCCN2C[C@H](O)[C@@H](O)[C@H](O)[C@H]2CO)c1 [MMV1634401]
Second: CCCCN1C[C@H](O)[C@@H](O)[C@H](O)[C@H]1CO [MMV1782098]
The “% of growth inhibition, Mean” value of the first is higher: 10.8% for the first, -8.6% for the second.

Going from `NC(N)=NCCCCC(=O)Nc1cc(C(F)(F)F)cc(NC(=O)c2cc(C(=O)Nc3cc(C(F)(F)F)cc(NC(=O)CCCCN=C(N)N)c3O[C@@H]3CCNC3)ncn2)c1O[C@@H]1CCNC1` [MMV1634402] to `CCOC(=O)/C=C/[C@H](C[C@@H]1CCNC1=O)NC(=O)[C@H](CC)n1cccc(NC(=O)c2cc(C)on2)c1=O` [MMV1782112], the “% of growth inhibition, Mean” value falls from -4.8% to -11.8%.

Compared with `CS(=O)(=O)c1ccc(Oc2ccc(Cl)cc2)cc1` [MMV1634404], `O=C(CCc1ccc2c(c1)OCO2)NCc1ccc(-c2ccccc2F)cc1` [MMV1782110] is lower in “% of growth inhibition, Mean” value: 4.1% for the first, -2.8% for the second.

First: Clc1cc(Cl)c2c(c1)CCc1ccccc1C2n1ccnc1 (centres unmarked) [MMV1634492]
Second: Cc1ccc(Oc2ccccc2-c2csc(N=C3NCCCN3)n2)c(C)c1 [MMV1634493]
The “% of growth inhibition, Mean” value of the first is higher: -30.6% for the first, -30.7% for the second.

Going from `CCc1cc(CCCOc2c(C)cc(-c3noc(C(F)(F)F)n3)cc2C)on1` [MMV1634556] to `O=c1oc2ccc(Br)cc2cc1CSc1ncc[nH]1` [MMV1782105], the “% of growth inhibition, Mean” value falls from 10.0% to -13.4%.

Compared with `O=[N+]([O-])/C(Br)=C/c1ccc(Br)o1` [MMV1645051], `O=C(NCc1ccc(F)cc1)c1c(O)c2ncccc2[nH]c1=O` [MMV1782097] is higher in “% of growth inhibition, Mean” value: -39.6% for the first, 3.9% for the second.

Going from `CCCC1(C2CC2)c2cc(Cl)ccc2NC(=O)N1C` (centres unmarked) [MMV1782113] to `COc1ccc2sc3c(c2c1)NC(C)CNC3=O` (centres unmarked) [MMV1782115], the “% of growth inhibition, Mean” value rises from -5.2% to -2.6%.
